Measurements: patent publication US20080038198A1, “Method Of Screening Molecule Associated With Psychiatric Disorder” (MITSUBISHI PHARMA CORPORATION, priority 2004, published 2008)
“Also recorded” adds a separate entry of the source.

How the values were obtained:
Assay type in all cases: in vivo, Caenorhabditis elegans
nematodes [1] = assay: slowing response: number of body bends over 20 seconds on drug-containing assay plate; conditions: acute treatment on plate containing no feed
Procedure: Nematodes were bred on a lawn of E. coli OP50 coated on a 60-mm NGM plate (Genetics, 77, pp. 71-94, 1974) in an incubator at 20° C.
MAP hydrochloride was dissolved in sterilized pure water at a 100-fold concentration, and 50 μL of the solution was applied to a 35-mm NGM plate (5 mL). As a control group, sterilized water used as a solvent was similarly applied to prepare an assay plate. Apomorphine (hereinafter also abbreviated as “APO”) dissolved in 0.1% aqueous ascorbic acid as a solvent was applied as a solution of 100-fold concentration in a similar manner to prepare an assay plate. For a control group, 0.1% aqueous ascorbic acid was used. The periphery of each assay plate was applied with a 3.5 mol/L sucrose solution to prevent nematodes from invading the back of the plate. Adult-stage nematodes bred on the E. coli lawn were washed with S-basal buffer (Genetics, 77, pp. 71-94, 1974), then transferred to each of the aforementioned assay plates, and left at room temperature with light shielding for one hour in the MAP treatment or 30 minutes in the APO treatment, and the number of body bends over 20 seconds was counted under a stereoscopic microscope. […]

nematodes [2] = assay: imipramine treatment: number of eggs laid during 90 minutes
Procedure: Nematodes washed with S-basal buffer were transferred onto a 35-mm assay plate prepared by applying imipramine (hereinafter abbreviated as “IMI”) in the same manner as that used for MAP, and the number of eggs laid during 90 minutes was counted. Five nematodes were transferred to each plate, and the count was obtained for each plate.

nematodes [3] = assay: behavioral sensitization analysis: MAP pretreatment, washout on E. coli lawn, then drug challenge and body bend count
Procedure: MAP hydrochloride was dissolved in sterilized pure water at a 100-fold concentration, and 50 μL of the solution was applied to a 35-mm NGM plate (5 mL). As a control group, sterilized water used as a solvent was similarly applied to prepare an assay plate. Apomorphine (hereinafter also abbreviated as “APO”) dissolved in 0.1% aqueous ascorbic acid as a solvent was applied as a solution of 100-fold concentration in a similar manner to prepare an assay plate. For a control group, 0.1% aqueous ascorbic acid was used. The periphery of each assay plate was applied with a 3.5 mol/L sucrose solution to prevent nematodes from invading the back of the plate. Adult-stage nematodes bred on the E. coli lawn were washed with S-basal buffer (Genetics, 77, pp. 71-94, 1974), then transferred to each of the aforementioned assay plates, and left at room temperature with light shielding for one hour in the MAP treatment or 30 minutes in the APO treatment, and the number of body bends over 20 seconds was counted under a stereoscopic microscope. In the behavioral sensitization analysis, nematodes treated on the MAP-containing NGM plate for one hour were returned to the E. coli lawn, bred at 20° C. for a predetermined time and then treated with various drugs, and their behavior was observed.

nematodes [4] = assay: screening for chemical substance inhibiting establishment of MAP-induced behavioral sensitization; conditions: ondansetron 1 or 10 μM with 300 μM MAP and overnight; MAP challenge next day
Procedure: In an incubator inside of which was maintained at 20° C., nematodes were bred on an Escherichia coli lawn prepared by applying the E. coli OP50 strain on a 60-mm NGM plate (Genetics, 77, pp. 71-94, 1974).
MAP hydrochloride was dissolved in pure water to prepare a 30 mM solution, and 50 μL of the solution was applied to a 35-mm NGM plate (5 mL) to prepare a 300 μM MAP plate. This MAP plate was further applied with 50 μL of an ondansetron solution (0.1 or 1 mM) dissolved in 100 mM NaCl or 0.1 N hydrochloric acid and adjusted to neutral pH by using NaOH to complete an assay plate. Nematodes (adults) bred on the Escherichia coli lawn were washed with S-basal buffer (Genetics, 77, pp. 71-94, 1974) for a short period of time, and then incubated on each of the aforementioned assay plates at 20° C. for one hour with light shielding. For this procedure, the periphery of each assay plate was applied with a 3.5 M sucrose solution to prevent nematodes from invading the back of the assay plate. […] On the following day, the nematodes were washed with S-basal buffer for a short period of time and transferred onto a MAP challenge plate prepared by applying 50 μL of a 10 μM MAP solution on a 35-mm NGM plate (5 mL), and the number of body bends over 20 seconds was counted under a stereoscopic microscope.

SMILES: CN1CCc2cccc3c2[C@H]1Cc1ccc(O)c(O)c1-3 [APO, Apomorphine]
- locomotion (slowing response) (nematodes [1]): induced slowing responses in a concentration-dependent manner; also recorded: inhibited the locomotion in a concentration-dependent manner

SMILES: CN(C)CCCN1c2ccccc2CCc2ccccc21 [IMI, imipramine]
- egg laying behavior (nematodes [2]; IMI applied on NGM plate, eggs laid during 90 minutes): increased egg laying behavior in a concentration-dependent manner; also recorded: promoted egg laying in a concentration-dependent manner

SMILES: CN[C@@H](C)Cc1ccccc1 [MAP, methamphetamine]
- locomotion (slowing response) (nematodes [1]): inhibited locomotion of nematodes in a concentration-dependent manner; also recorded: inhibited the locomotion in a concentration-dependent manner
- susceptibility to MAP-induced slowing response (establishment of behavioral sensitization) (nematodes [3]; 300 μmol/L MAP experienced on the previous day, MAP challenge next day): increased susceptibility to a treatment with MAP was observed; also recorded: the susceptibility was increased
- dependence of establishment of behavioral sensitization on MAP pretreatment concentration (nematodes [3]; MAP pretreatment on previous day at various concentrations): dependent on the MAP concentration used for pretreatment; also recorded: dependent on the concentration of MAP experienced on the previous day
- APO-induced slowing response after MAP pretreatment (cross of behavioral sensitization) (nematodes [3]; MAP pretreatment, APO challenge): increased susceptibility to APO and induced slowing responses even at a low concentration; also recorded: enhanced by an MAP pretreatment
- duration of MAP-induced behavioral sensitization (nematodes [3]; MAP washout period from pretreatment to challenge): at least 2 days
- influence of MAP pretreatment on IMI-induced egg-laying behavior (nematodes [2]; MAP treatment on the previous day, IMI challenge): had no effect on IMI-induced egg-laying behavior; also recorded: had no influence on the egg-laying behavior promoted by IMI

SMILES: Cc1nccn1CC1CCc2c(c3ccccc3n2C)C1=O (stereo not drawn) [ondansetron]
- establishment of MAP-induced behavioral sensitization (nematodes [4]): inhibition of establishment of MAP-induced behavioral sensitization; also recorded: exhibits an antagonistic action on the establishment of MAP-induced behavioral sensitization
